Measurements taken from US8637050B2, “Peptide vaccines against group A streptococci” (The United States of America, as represented by the …, priority 2001, dated 2014).
No end group written: not given here.

What was measured:
streptococci (GAS) = test: Nasopharyngeal colonization challenge in vaccinated mice; type: in vivo; details: vaccinated mice relative to alum-only control mice; nasal wash 24 hours after 10^4 CFU challenge
Experimental: (§1) Mice (6 week old female Swiss Webster, Harley-Sprague) were immunized subcutaneously (s.c.) with either the peptide in alum or alum alone for control groups. Peptides were rotated in the alum mixture for 2 hours at 4° C. and stored at 4° C. overnight prior to use.
(§2) Mice were challenged intranasally one week after the final booster injection was administered. Prior to being challenged, mice were anesthetized with a ketamine/xylazine mixture. Mice were then given 10^4-10^5 CFU (10 μl) of streptococci intranasally via a microliter pipette. They were sacrificed 24 hours after the challenge and the nasopharyngeal passages were washed with approximately 100 μl physiological saline which was collected and immediately placed on ice. Dilutions of the wash were then plated on trypticase soy agar plates (5% sheep blood) and incubated at 37° C. for 18 hours to quantitate viable organisms. Nasopharyngeal colonization in immunized mice was compared to non-immunized controls. Statistical analysis of the NP data was accomplished using the t-test and rank sum test.
Nasopharyngeal (NP) colonization challenge experiments were performed on mice vaccinated (s.c.) with either M3-1 or M3-2 peptide in alum in comparison to control animals which received alum only. The nasopharyngeal colonization challenge was performed by doing a nasal wash 24 hours after challenge. […]

GAS M type M3 = test: Opsonophagocytosis / bactericidal activity in vitro, GAS M type M3; type: cell-based, Group A streptococci
Experimental: (§3) Opsonophagocytosis assays were performed as previously described in Lancefield, R. C., Persistence of type-specific antibodies in man following infection with group A streptococci, 1959, J. Immunol., 89:307. Briefly, diluted serum (50 μl) was added to mid-log phase GAS (10^3 CFU) in Todd-Hewitt broth (50 μl) and whole, heparinized blood (500 μl) from a nonopsonic human donor. Mixtures were briefly vortexed and placed at 37° C. in a shaker for 3 hours. Dilutions were then plated on trypticase soy agar plates (5% sheep blood) to quantitate viable organisms. The % killing is expressed as [(CFU control-CFU test)/CFU control]×100.
(§4) Some of the peptides tested in the previous examples were tested for cross-type protection using the methods described above. […] The peptide tested and serotype against which it was tested is indicated.

[1] = tested on: anti-M protein antibodies in mouse sera; test: ELISA of sera of mice immunized s.c. with peptide in alum (immunogenicity); type: in vivo, mice (Swiss Webster)
Experimental: (§5) Levels of anti-M protein antibodies in mouse sera were determined by an enzyme-linked immunosorbent assay (ELISA) using either synthetic peptides or whole M protein as antigen. Microtiter plates (DYNEX Immulon 2 HB) were coated with 10 μg/ml antigen in 10 mM phosphate-buffered saline (PBS) at 4° C. overnight. Plates were rinsed three times with wash buffer (0.05% Tween 20 in 10 mM PBS, pH 7.2) and blocked with 1% BSA in PBS for one hour at 37° C. The appropriate test sera were applied at a starting dilution of 1:1000 and serially diluted two fold down the plate in PBS. Plates were incubated at 37° C. for 30 minutes and subsequently rinsed three times. Goat anti-rabbit or goat anti-mouse Ig-peroxidase conjugate diluted 1:10,000 in PBS was added to all wells and incubated for two hours at 37° C. Plates were rinsed three times with wash buffer and freshly prepared TMB peroxidase (Kirkegaard and Perry Laboratories) was added. Reactions were quenched with 0.18 M H2SO4 after 30 minutes at room temperature and OD450 was measured with a Labsystems Multiskan plate reader using Ascent software. ELISA titers are expressed as the reciprocal of the last dilution which gave a reading OD450>0.10.
as §1

GAS = test: Opsonophagocytosis assay in vitro with sera of immunized mice; type: cell-based, Group A streptococci; details: human whole blood, 3 hours
Experimental: as §3
Each of the sera tested positive in the assay and was able to reduce the amount of viable bacteria relative to controls.

GAS M type M43 = test: Opsonophagocytosis / bactericidal activity in vitro, heterologous GAS M type M43; type: cell-based, Group A streptococci
Experimental: as §3, §4

GAS M type M3 or M43 = test: Reduction of colonization in mice, colonizing GAS M type M3 or M43; type: in vivo
Experimental: as §1, §2
Some of the peptides were tested for reduction of colonization of GAS in mice. […] The peptides were administered together but were not chemically combined in any way. […] Some of the mice were colonized by M3, and some of the mice were colonized by M43.

[2] = tested on: rabbit sera prepared against whole M protein; test: ELISA: peptide recognition by anti-M protein rabbit sera; type: binding; details: for immunoreactivity of peptide with anti-M protein rabbit sera (ELISA): rabbit sera against whole M protein of the respective serotype
Experimental: Overlapping peptides representing each M type were assessed for their immunogenicity using ELISA and dot-immunoblot.
as §5
The immunoreactivity of several synthetic peptides was determined by ELISA using rabbit sera prepared against whole M protein. The synthetic peptides are representative of relatively small portions of the M protein N-terminus; therefore, it was advantageous to determine if the epitopes contained within particular peptides were immunoreactive with sera prepared against whole M protein. It was shown that the whole anti-M protein rabbit sera of the respective serotypes could bind to each of the synthetic peptides within that serotype. However, some peptides were more highly immunoreactive than others, thus being better suited for use in the animal studies.

GAS M type M12 = test: Opsonophagocytosis / bactericidal activity in vitro, GAS M type M12; type: cell-based, Group A streptococci
Experimental: as §3, §4

GAS M type M1 [3] = test: Reduction of colonization in mice, colonizing GAS M type M1; type: in vivo
GAS M type M1 [4] = test: Opsonophagocytosis / bactericidal activity in vitro, GAS M type M1; type: cell-based, Group A streptococci
Experimental: as §3, §4

| Sequence | Reduction of colonization (streptococci (GAS)) [%] | reduction of M3 type bacteria (GAS M type M3; in vitro versus control) | % CFU reduction (GAS M type M3; in vitro, GAS M type M3) | ELISA (elicitation of antibodies) [1] | Opsono (in vitro) (GAS) | reduction of M43 type bacteria (GAS M type M43; in vitro versus control) | % CFU reduction (GAS M type M43; in vitro, heterologous GAS M type M43) | cross-type protection in vivo (GAS M type M3 or M43; mice colonized by M3 or M43) | % CFU reduction (GAS M type M3 or M43; mice, colonizing GAS M type M3 or M43, reduction overall) | immunoreactivity of peptide with anti-M protein rabbit sera (ELISA) [2] | % CFU reduction (GAS M type M12) | % CFU reduction (GAS M type M1 [3]) | % CFU reduction (GAS M type M1 [4]) | immunoreactivity by ELISA using rabbit sera prepared against whole M protein [2] |
| --- | --- | --- | --- | --- | --- | --- | --- | --- | --- | --- | --- | --- | --- | --- |
| CGEFPRHVKLKNEIENLLDQV [Peptide M3-2] | 67 | significantly reduce | 90-95% | yes | yes | significantly reduce | 60-80% | capable in vivo of cross-type protection | 67% (P < 0.30) | highest reactivity | – | – | – | – |
| CDHSDLVAEKQRLEDLGQKFE [Peptide M12-1] | – | – | – | yes | yes | – | – | – | – | highest reactivity | 70-80% | – | – | – |
| CIRLRHENKDLKARLENAMEV [Peptide M1-3] | – | – | – | yes | yes | – | – | – | – | – | – | 90% (P < 0.10) | 80-95% | confirmed |
